Source: ChEMBL document CHEMBL1124085, “Flavins as potential antimalarials. 1. 10-(Halophenyl)-3-methylflavins” (1988)
Where “and” joins values, the source holds several entries; their conditions need not be identical. Identical values can stand only once.

The molecules below were run on Mus musculus (assay: Parenteral antimalarial activity against Plasmodium vinckei in mice (Mus musculus) measured as % cured and increase in MST (days) at 30 mg/kg dose). Settings: not given.
Assay type: functional

SMILES	Cured [%]
Cn1c(=O)nc2n(-c3cccc(Br)c3)c3ccccc3nc-2c1=O	60
Cn1c(=O)nc2n(-c3ccc(Br)cc3)c3ccccc3nc-2c1=O	40

Each molecule was assayed on Mus musculus (assay: Parenteral antimalarial activity against Plasmodium vinckei vinckei in mice (Mus musculus) measured as % cured and increase in MST (days) at 15 mg/kg dose). Settings: not given.
Assay type: functional

SMILES	Cured [%]
Cn1c(=O)nc2n(-c3ccc(Cl)cc3)c3ccccc3nc-2c1=O	95
Cn1c(=O)nc2n(-c3cccc(Br)c3)c3ccccc3nc-2c1=O	0
Cn1c(=O)nc2n(-c3ccc(Br)cc3)c3ccccc3nc-2c1=O	100

The molecules below were run on Mus musculus (assay: Parenteral antimalarial activity against Plasmodium vinckei in mice (Mus musculus) measured as % cured and increase in MST (days) at 20 mg/kg dose). Settings: not given.
Assay type: functional

SMILES	Cured [%]
Cn1c(=O)nc2n(-c3cccc(Br)c3)c3ccccc3nc-2c1=O	20
Cn1c(=O)nc2n(-c3ccc(Br)cc3)c3ccccc3nc-2c1=O	100

Same assay, conditions: 20 mg/kg

SMILES	Cured
Cn1c(=O)nc2n(-c3ccc(Cl)cc3)c3ccccc3nc-2c1=O	100% and 90%

These molecules were tested on Mus musculus (assay: Parenteral antimalarial activity against Plasmodium vinckei in mice (Mus musculus) measured as % cured and increase in MST (days) at 25 mg/kg dose). Settings: not given.
Assay type: functional

SMILES	Cured [%]
Cn1c(=O)nc2n(-c3cccc(Br)c3)c3ccccc3nc-2c1=O	60
Cn1c(=O)nc2n(-c3ccc(Br)cc3)c3ccccc3nc-2c1=O	60

What follows are molecules tested on Mus musculus (assay: Oral antimalarial activity against Plasmodium vinckei in mice (Mus musculus) measured as % cured and increase in MST (days) at 25 mg/kg dose). Settings: not given.
Assay type: functional

SMILES	Cured [%]
Cn1c(=O)nc2n(-c3ccc(Cl)cc3)c3ccccc3nc-2c1=O	45
Cn1c(=O)nc2n(-c3cccc(Br)c3)c3ccccc3nc-2c1=O	0
Cn1c(=O)nc2n(-c3ccc(Br)cc3)c3ccccc3nc-2c1=O	60

These molecules were tested on Mus musculus (assay: Oral antimalarial activity against Plasmodium vinckei vinckei in mice (Mus musculus) measured as % cured and increase in MST (days) at 50 mg/kg dose). Settings: not given.
Assay type: functional

SMILES	Cured [%]
Cn1c(=O)nc2n(-c3ccc(Cl)cc3)c3ccccc3nc-2c1=O	75
Cn1c(=O)nc2n(-c3cccc(Br)c3)c3ccccc3nc-2c1=O	20
Cn1c(=O)nc2n(-c3ccc(Br)cc3)c3ccccc3nc-2c1=O	100

What follows are molecules tested on Mus musculus (assay: Oral antimalarial activity against Plasmodium vinckei in mice (Mus musculus) measured as % cured and increase in MST (days) at 75 mg/kg dose). Settings: not given.
Assay type: functional

SMILES	Cured [%]
Cn1c(=O)nc2n(-c3ccc(Cl)cc3)c3ccccc3nc-2c1=O	85
Cn1c(=O)nc2n(-c3cccc(Br)c3)c3ccccc3nc-2c1=O	40
Cn1c(=O)nc2n(-c3ccc(Br)cc3)c3ccccc3nc-2c1=O	100

The molecules below were run on Mus musculus (assay: Parenteral antimalarial activity against Plasmodium vinckei in mice (Mus musculus) measured as % cured and increase in MST (days) at 10 mg/kg dose). Settings: not given.
Assay type: functional

SMILES	Cured [%]
Cn1c(=O)nc2n(-c3ccc(Cl)cc3)c3ccccc3nc-2c1=O	60
Cn1c(=O)nc2n(-c3ccc(Br)cc3)c3ccccc3nc-2c1=O	80

The molecules below were run on Mus musculus (assay: Oral antimalarial activity against Plasmodium vinckei vinckei in mice (Mus musculus) measured as % cured and increase in MST (days) at 100 mg/kg dose). Settings: not given.
Assay type: functional

SMILES	Cured [%]
Cn1c(=O)nc2n(-c3ccc(Cl)cc3)c3ccccc3nc-2c1=O	90
Cn1c(=O)nc2n(-c3cccc(Br)c3)c3ccccc3nc-2c1=O	60
Cn1c(=O)nc2n(-c3ccc(Br)cc3)c3ccccc3nc-2c1=O	100

These molecules were tested on Mus musculus (assay: Oral antimalarial activity against Plasmodium vinckei vinckei in mice (Mus musculus) measured as % cured and increase in MST (days) at 150 mg/kg dose). Settings: not given.
Assay type: functional

SMILES	Cured [%]
Cn1c(=O)nc2n(-c3ccc(Cl)cc3)c3ccccc3nc-2c1=O	90
Cn1c(=O)nc2n(-c3cccc(Br)c3)c3ccccc3nc-2c1=O	60
Cn1c(=O)nc2n(-c3ccc(Br)cc3)c3ccccc3nc-2c1=O	100

What follows are molecules tested on Mus musculus (assay: Parenteral antimalarial activity against Plasmodium vinckei in mice (Mus musculus) measured as increase in mean survival time at 20 mg/kg dose). Settings: not given.
Assay type: functional

SMILES	MST [days]
Cn1c(=O)nc2n(-c3cccc(Br)c3)c3ccccc3nc-2c1=O	1.4

What follows are molecules tested on Mus musculus (assay: Parenteral antimalarial activity against Plasmodium vinckei vinckei in mice (Mus musculus) measured as increase in mean survival time at 25 mg/kg dose). Settings: not given.
Assay type: functional

SMILES	MST [days]
Cn1c(=O)nc2n(-c3cccc(Br)c3)c3ccccc3nc-2c1=O	3
Cn1c(=O)nc2n(-c3ccc(Br)cc3)c3ccccc3nc-2c1=O	14

These molecules were tested on Mus musculus (assay: Parenteral antimalarial activity against Plasmodium vinckei in mice (Mus musculus) measured as increase in mean survival time at 30 mg/kg dose). Settings: not given.
Assay type: functional

SMILES	MST [days]
Cn1c(=O)nc2n(-c3cccc(Br)c3)c3ccccc3nc-2c1=O	1
Cn1c(=O)nc2n(-c3ccc(Br)cc3)c3ccccc3nc-2c1=O	13

These molecules were tested on Mus musculus (assay: Parenteral antimalarial activity against Plasmodium vinckei in mice (Mus musculus) measured as increase in mean survival time at 10 mg/kg dose). Settings: not given.
Assay type: functional

SMILES	MST [days]
Cn1c(=O)nc2n(-c3ccc(Cl)cc3)c3ccccc3nc-2c1=O	1.5
Cn1c(=O)nc2n(-c3ccc(Br)cc3)c3ccccc3nc-2c1=O	2

Each molecule was assayed on Mus musculus (assay: Parenteral antimalarial activity against Plasmodium vinckei in mice (Mus musculus) measured as increase in mean survival time at 15 mg/kg dose). Settings: not given.
Assay type: functional

SMILES	MST [days]
Cn1c(=O)nc2n(-c3ccc(Cl)cc3)c3ccccc3nc-2c1=O	1
Cn1c(=O)nc2n(-c3cccc(Br)c3)c3ccccc3nc-2c1=O	1.3

These molecules were tested on Mus musculus (assay: Oral antimalarial activity against Plasmodium vinckei in mice (Mus musculus) measured as increase in mean survival time at 100 mg/kg dose). Settings: not given.
Assay type: functional

SMILES	MST [days]
Cn1c(=O)nc2n(-c3ccc(Cl)cc3)c3ccccc3nc-2c1=O	2.7
Cn1c(=O)nc2n(-c3cccc(Br)c3)c3ccccc3nc-2c1=O	1.5

What follows are molecules tested on Mus musculus (assay: Oral antimalarial activity against Plasmodium vinckei in mice (Mus musculus) measured as increase in mean survival time at 150 mg/kg dose). Settings: not given.
Assay type: functional

SMILES	MST [days]
Cn1c(=O)nc2n(-c3ccc(Cl)cc3)c3ccccc3nc-2c1=O	2.7
Cn1c(=O)nc2n(-c3cccc(Br)c3)c3ccccc3nc-2c1=O	1

What follows are molecules tested on Mus musculus (assay: Oral antimalarial activity against Plasmodium vinckei in mice (Mus musculus) measured as increase in mean survival time at 25 mg/kg dose). Settings: not given.
Assay type: functional

SMILES	MST [days]
Cn1c(=O)nc2n(-c3ccc(Cl)cc3)c3ccccc3nc-2c1=O	2.4
Cn1c(=O)nc2n(-c3ccc(Br)cc3)c3ccccc3nc-2c1=O	3.5

Same assay, conditions: 25 mg/kg

SMILES	MST
Cn1c(=O)nc2n(-c3cccc(Br)c3)c3ccccc3nc-2c1=O	1 days and 2 days

Each molecule was assayed on Mus musculus (assay: Oral antimalarial activity against Plasmodium vinckei vinckei in mice (Mus musculus) measured as increase in mean survival time at 50 mg/kg dose). Settings: not given.
Assay type: functional

SMILES	MST [days]
Cn1c(=O)nc2n(-c3ccc(Cl)cc3)c3ccccc3nc-2c1=O	1.4

Each molecule was assayed on Mus musculus (assay: Oral antimalarial activity against Plasmodium vinckei vinckei in mice (Mus musculus) measured as increase in mean survival time at 75 mg/kg dose). Settings: not given.
Assay type: functional

SMILES	MST [days]
Cn1c(=O)nc2n(-c3ccc(Cl)cc3)c3ccccc3nc-2c1=O	1
Cn1c(=O)nc2n(-c3cccc(Br)c3)c3ccccc3nc-2c1=O	1.5
